# Measurements reported in patent US11197859B2 (AUTIFONY THERAPEUTICS LIMITED, priority 2010, dated 2021).
# Where two headings read alike, the source gives them in different places.
# Tests used:
# [1] = tested on: Adult male CD rats; assay: Assessment of physiological sleep in the rat (EEG/EMG telemetry); assay type: in vivo; settings: 60 mg/kg oral at CT18, 5 hour period following dosing
# Method: Adult male CD rats (C. River, Italy) were implanted with telemetric probes and housed singly, under controlled condition (temperature 18-20° C.; relative humidity 45-50%; 12 hours light-dark cycle, lights on at 3 p.m., designated Circadian Time (CT) 0) with free access to food and water.
# Reference Example RE1 was formulated in tween (0.1% v/v) and HPMC (0.5% v/v) and was administered orally at doses of 10, 30 and 60 mg/kg (vol. 2 ml/kg) at CT18 (6 hours before lights on). The electroencephalogram (EEG) and electromyogram (EMG) were recorded continuously, starting immediately after administration, using telemetric apparatus (DSI Dataquest® A.R.T. system). EEG and EMG recordings were analysed to evaluate sleep patterns using sleepSign® (Kissei Comtec Co.). Statistical analyses (1-way Anova followed by a Dunnett's test) was performed using Statistica-8 software.
# [2] = tested on: Male CD rats; assay: Electroshock seizure model in rats; assay type: in vivo, rat; settings: 2 hours before test
# Method: Male CD rats (85-130 g) were supplied by Charles River, Italy.
# (§1) Testing involved determining the threshold for tonic hindlimb extensor seizures using a Hugo Sachs Electronik stimulator which delivers a constant current of 0.3 second duration, 50 Hz, sinewave form, fully adjustable between 1 and 300 mA. Stimuli were delivered via corneal electrodes (Stean T O, Atkins A R, Heidbreder C A, Quinn L P, Trail B K, Upton N. (2005) Br J Pharmacol. 144(5):628-35). Seizure threshold was determined using the ‘up and down’ method of Kimball et al. (1957)(Kimball A W, Burnett W T Jr, Doherty D G. (1957) Radiat Res. 7(1):1-12). The first animal tested in each group was stimulated with a current that might be expected to be close to the threshold for induction of a seizure. If a tonic seizure was not induced, then the next animal in the group received a stimulus 5 mA higher. If a tonic seizure was induced, then the next animal received a stimulus 5 mA lower. This is repeated for all animals within the control (vehicle) group. In the case of groups treated with a test compound steps of 5 to 10 mA were used. At the end of the study, blood samples were taken for analysis of the drug concentrations in this compartment (n=4/group).
# (§2) All doses were calculated as base. Sodium valproate was suspended in Methocell 1% (w/v) and dosed via the oral (p.o.) route at 5 mL/kg 1 hour before test. Reference Example RE1 was dissolved in DMSO and then suspended in Methocell 1% (w/v) to a final DMSO concentration of 5% (v/v). Reference Example RE1 was then dosed p.o. at 5 mL/kg 2 hours before test.
# Induction of seizure is measured as an all-or-nothing effect scored as either present (+) or absent (0) for each animal. […] Drug effects were calculated as the % change in CC50. Significant differences between drug-treated animals and appropriate vehicle treated groups were assessed according to the methods of Litchfield and Wilcoxon (1949).
# [3] = Blood concentrations in satellite animals of the electroshock seizure study; assay type: in vivo; settings: CD, whole blood, po, rat, 2 hours after dosing
# Method: as §1, §2
# Blood concentrations of Reference Example RE1 measured in satellite animals 2 hours after dosing were 5.3 and 9.1 μg/mL following the doses of 30 and 60 mg/kg p.o., respectively. These concentrations are equivalent to unbound concentrations in blood of 1.3 and 2.2 μM, respectively, and thus are consistent with concentrations of Reference Example RE1 that produce a significant increase in Kv3-mediated currents observed in the in vitro recombinant human Kv3 electrophysiology assay, described above.
smiles,measurement,setting,value
"CC[C@H]1NC(=O)N(c2ccc(Oc3ccc(C)c(OC)c3)nc2)C1=O [RE1, (5R)-5-ethyl-3-(6-{[4-methyl-3-(methyloxy)phenyl]oxy}-3-pyridinyl)-2,4-imidazolidinedione]",time spent in REM sleep,[1],did not affect
same,time spent in non-REM sleep,"[1]; p<0.05, n=8",significantly increased
same,total sleep time,"[1]; p<0.05, n=8",significantly increased
same,increase in seizure threshold (% change in CC50),[2]; 30 mg/kg p.o.,91%
same,increase in seizure threshold (% change in CC50),[2]; 60 mg/kg p.o.,218%
same,concentration at 2 h,"[3]; 30 mg/kg p.o., read-out: blood concentration",5300 ng/mL
same,concentration at 2 h,"[3]; 30 mg/kg p.o., read-out: unbound concentration in blood",1300 nM
same,concentration at 2 h,"[3]; 60 mg/kg p.o., read-out: blood concentration",9100 ng/mL
same,concentration at 2 h,"[3]; 60 mg/kg p.o., read-out: unbound concentration in blood",2200 nM
